Results taken from patent publication US20190076431A1, “SRC INHIBITOR TO BLOCK CELL SURFACE GRP78 EXPRESSION” (University of Southern California, priority 2016, published 2019).

Columns and labels:
cell surface GRP78 = assay: Biotinylated cell surface protein levels after DAS treatment of H929 MM cells (Western blot); type: cell-based; details: DAS 1 μM for the indicated time, biotinylated cell surface proteins
Procedure: Cell Surface Protein Biotinylation and Avidin Pull-down—Following treatment, the cells were washed with cold PBS 3 times. EZ-Link Sulfo-NHS-SS-Biotin (Thermo Scientific, Waltham, Mass.) in PBS at 0.5 mg/ml was added and the cells were gently shaken at 4° C. for 30 min. To stop the biotinylation reaction, the biotin solution was removed, and the cells were rinsed three times with the quenching buffer containing Tris-Cl pH 7.4 in cold PBS. Then cells were rinsed with cold PBS and subjected to either sodium carbonate extraction (see below) or radioimmune precipitation (RIPA) lysis. The RIPA lysis buffer was supplemented with protease and phosphatase inhibitor cocktail (Thermo Scientific). Protein concentrations were determined by Bradford assay (Bio-Rad Lab, Hercules, Calif.). Part of the lysate was saved as whole cell lysate for Western blots to measure the total level of the target proteins. To purify the surface proteins, the remaining lysates were mixed with High Capacity NeutrAvidin Agarose Resin (Thermo Scientific) at room temperature for 1 h, and the resin was washed by RIPA buffer and centrifuged at 3,000× g for 1 min ten times. […]
Immunoblot Analysis—Protein samples were subjected to 10% or 15% SDS-PAGE and Western blot analysis as previously described (9). […] Protein levels were visualized and quantitated by ChemiDoc™ XRS+ Imager (Bio-Rad Lab) or LI-COR Odyssey (LI-COR Biosciences).

[1] = Enhancement of proteasome based therapy (summary statement)
csGRP78 = csGRP78 by flow cytometry in CD138+ MM cells from the bone marrow of a MM patient; type: cell-based, human; details: DAS 0.3 μM for 24 hr
Procedure: FIG. 11. […] (A) Peripheral blood mononuclear cells were isolated from the bone marrow of a MM patient and sorted into CD138+ (blue) and CD138− (non-malignant) cells (orange) and csGRP78 was measured by flow cytometry, with RPMI-8226 MM cell line (red) analyzed in parallel. (B) CD138+ MM cells were treated with DAS (0.3 μM) for 24 hr and assayed for csGRP78 by flow cytometry.

## Cc1nc(Nc2ncc(C(=O)Nc3c(C)cccc3Cl)s2)cc(N2CCN(CCO)CC2)n1 [Dasatinib, dasatinib]
Cell surface GRP78
  cell surface GRP78 expression: Suppresses Cell Surface GRP78
[1]
  effect on proteasome based therapy: enhance proteasome based therapy
csGRP78
  csGRP78 by flow cytometry: Suppresses Cell Surface GRP78
